This is an account of results in ChEMBL document CHEMBL3046005, “New Insecticidal 4-Acetoxy-2-alkenylquinolines” (1996).

Holding throughout (assay type): functional
Assay [1] relates to Bombyx mori. Put plainly: Insecticidal activity against Bombyx mori larvae assessed as mortality at 40 ug administered topically measured after 48 hr.
Assay [2] concerns Bombyx mori. Put plainly: Insecticidal activity against Bombyx mori larvae assessed as mortality at 10 ug administered topically measured after 48 hr.
Assay [3] relates to Bombyx mori. Put plainly: Insecticidal activity against Bombyx mori larvae assessed as mortality at 0.63 ug administered topically measured after 48 hr.
Assay [4] concerns Bombyx mori. Put plainly: Insecticidal activity against Bombyx mori larvae assessed as mortality at 2.5 ug administered topically measured after 48 hr.
Assay [5] deals with Laodelphax striatellus. Put plainly: Insecticidal activity against Laodelphax striatella (small brown planthopper) larvae assessed as mortality at 1000 ppm by leaf spray method.
In assay [6] the test system is Tetranychus urticae. Put plainly: Insecticidal activity against Tetranychus urticae (two-spotted spider mite) eggs assessed as mortality at 1000 ppm by leaf spray method.
In assay [7] the test system is Tetranychus urticae. Put plainly: Insecticidal activity against Tetranychus urticae (two-spotted spider mite) eggs assessed as mortality at 250 ppm by leaf spray method.
Assay [8] relates to Laodelphax striatellus. Put plainly: Insecticidal activity against Laodelphax striatella (small brown planthopper) larvae assessed as mortality at 250 ppm by leaf spray method.
In assay [9] the test system is Tetranychus urticae. Put plainly: Insecticidal activity against Tetranychus urticae (two-spotted spider mite) eggs assessed as mortality at 500 ppm by leaf spray method.
For assay [10], the system named is Plutella xylostella. Put plainly: Insecticidal activity against Plutella xylostella (diamondback moth) larvae assessed as mortality at 1000 ppm by leaf spray method.
The test system of assay [11] is Plutella xylostella. Put plainly: Insecticidal activity against Plutella xylostella (diamondback moth) larvae assessed as mortality at 250 ppm by leaf spray method.
Assay [12] has as its system Laodelphax striatellus. Put plainly: Insecticidal activity against Laodelphax striatella (small brown planthopper) larvae assessed as mortality at 500 ppm by leaf spray method.
In assay [13] the test system is Plutella xylostella. Put plainly: Insecticidal activity against Plutella xylostella (diamondback moth) larvae assessed as mortality at 500 ppm by leaf spray method.

Regarding `CCCCCC/C=C/Cc1nc2ccccc2c(OC(C)=O)c1C`, the Activity in the assay with Bombyx mori [1] is given as 100%; in the assay with Bombyx mori [2], 100%; in the assay with Bombyx mori [3], 15%; with Bombyx mori [4], 100%.

For the compound `CCCCCCC/C=C/c1nc2ccccc2c(O)c1C`, the Activity in the assay with Bombyx mori [1], in the assay with Bombyx mori [2] and in the assay with Bombyx mori [4] was 0% throughout.

As to `CCCCCCC/C=C\c1nc2ccccc2c(OC(C)=O)c1C`, the Activity with Laodelphax striatellus [5] was 100%; with Bombyx mori [1] it was 100%; in the assay on Tetranychus urticae [6], 100%; with Tetranychus urticae [7], 68.2%; in the assay on Bombyx mori [2], 100%; in the assay with Laodelphax striatellus [8] it was 76%. For the same compound, the Activity in the assay on Tetranychus urticae [9] amounted to 100%; with Bombyx mori [3], 65%; in the assay with Bombyx mori [4], 100%; in the assay with Plutella xylostella [10] it was 100%; in the assay on Plutella xylostella [11], 100%; in the assay with Laodelphax striatellus [12] it was 94%. Moreover, in the assay with Plutella xylostella [13], the Activity stood at 100%.

Turning to `CCCCCCC/C=C\c1nc2ccccc2c(O)c1C`, the Activity came out at 70% in the assay with Bombyx mori [1], 20% in the assay on Bombyx mori [2] and 0% in the assay with Bombyx mori [4].

In the case of `CCCCCC/C=C/Cc1[nH]c2ccccc2c(=O)c1C`, the Activity amounted to 20% in the assay with Bombyx mori [1], 0% in the assay with Bombyx mori [2] and 0% in the assay on Bombyx mori [4].

Consider `CCCCC/C=C/C=C/c1nc2ccccc2c(OC(C)=O)c1C`, for which the Activity in the assay on Bombyx mori [1] was 100%; in the assay on Bombyx mori [2], 0%; with Bombyx mori [4], 0%.

For the compound `CCCCC/C=C/C=C/c1nc2ccccc2c(O)c1C`, the Activity in the assay with Bombyx mori [1], in the assay on Bombyx mori [2] and in the assay with Bombyx mori [4] was 0% throughout.

In the case of `CCCCCCC/C=C/c1nc2ccccc2c(OC(C)=O)c1C`, the Activity was 100% in the assay on Bombyx mori [1], 100% with Bombyx mori [2], 0% with Bombyx mori [3] and 100% in the assay with Bombyx mori [4].

Turning to `CCCCCC/C=C/C(O)c1nc2ccccc2c(OC(C)=O)c1C` (configuration not stated), the Activity in the assay with Bombyx mori [1] stood at 85%; in the assay with Bombyx mori [2], 10%; in the assay with Bombyx mori [4] it was 0%.

As to `CCCCCC/C=C/C(O)c1nc2ccccc2c(O)c1C` (configuration not stated), the Activity with Bombyx mori [1] turned out to be 5%; with Bombyx mori [2] it was 0%; in the assay on Bombyx mori [4], 0%.
